Assay results: PMC7421780 (Future Medicinal Chemistry, 2020)
In brackets after ≈: the same amount, converted by molar mass.

How the values were obtained:
Assay in all cases: microbe, parasite or virus in culture
Format in all cases: cell-based
Settings in all cases: Mycobacterium tuberculosis
[1] = test system: INH-R1 (Mtb strain resistant to isoniazid)
[2] = test system: INH-R2 (Mtb strain resistant to isoniazid)
[3] = test system: FQ-R1 (Mtb strain resistant to fluoroquinolone)
[4] = test system: RIF-R1 (Mtb strain resistant to rifampicin)
[5] = test system: RIF-R2 (Mtb strain resistant to rifampicin)

Structure (SMILES) | IC50 [1] [µM] | IC90 [1] [µM] | MIC [1] [µM] | IC50 [2] [µM] | IC90 [2] [µM] | MIC [2] [µM] | IC50 [3] [µM] | IC90 [3] [µM] | MIC [3] [µM] | IC50 [4] [µM] | IC90 [4] [µM] | MIC [4] [µM] | IC50 [5] [µM] | IC90 [5] [µM] | MIC [5] [µM]
O=C(C[n+]1ccn(Cc2cccc(Cn3cc[n+](CC(=O)c4ccc([N+](=O)[O-])cc4)c3)n2)c1)c1ccc([N+](=O)[O-])cc1.[Br-].[Br-] [Compound 4f, 1,1′-(pyridine-2,6-diylbis(methylene))bis(3-(2-(4-nitrophenyl)-2-oxoethyl)-1H-imidazol-3-ium) bromide] | 46 | 52 | 55 | 39 | 75 | 65 | 49 | 91 | 87 | 35 | 100 | 67 | 40 | 120 | > 200
c1cc(Cn2cnc3ccccc32)nc(Cn2cnc3ccccc32)c1 [Compound 5, 2,6-bis((1H-benzo[d]imidazol-1-yl)methyl)pyridine] | > 50 | > 50 | > 50 | > 50 | > 50 | > 50 | > 50 | > 50 | > 50 | > 50 | > 50 | > 50 | > 50 | > 50 | > 50
C[C@H]1COc2c(N3CCN(C)CC3)c(F)cc3c(=O)c(C(=O)O)cn1c23 [Compound C3, Levofloxacin, reference compound] | 0.64 | 1.4 | 1.2 (≈ 0.434 µg/mL) | 0.84 | 1.4 | – | 12 | 22 | 20 (≈ 7.23 µg/mL) | 0.59 | 0.91 | – | 0.6 | 1.2 | 1.1 (≈ 0.398 µg/mL)
O=[N+]([O-])c1cn(Cc2cccc(Cn3cnc([N+](=O)[O-])c3)n2)cn1 [Compound 2b, 2,6-bis((4-nitro-1H-imidazol-1-yl)methyl)pyridine] | 68 | 90 | 98 (≈ 32.3 µg/mL) | 24 | 28 | 28 (≈ 9.22 µg/mL) | 66 | 92 | 102 (≈ 33.6 µg/mL) | 60 | 160 | 111 (≈ 36.5 µg/mL) | 38 | 61 | 68 (≈ 22.4 µg/mL)
O=C(C[n+]1cn(Cc2cccc(Cn3c[n+](CC(=O)c4ccccc4)c4ccccc43)n2)c2ccccc21)c1ccccc1.[Br-].[Br-] [Compound 6c, 1,1′-(pyridine-2,6-diylbis(methylene))bis(3-(2-oxo-2-phenylethyl)-1H-benzo[d]imidazol-3-ium) bromide] | 42 | 170 | 120 | 42 | 150 | 110 | 40 | > 200 | 200 | 24 | 110 | 87 | 44 | 120 | 100
NNC(=O)c1ccncc1 [Isoniazid, reference compound] | > 200 | > 200 | > 200 | > 200 | > 200 | > 200 | 0.36 | 0.47 | 0.35 (≈ 0.048 µg/mL) | 0.15 | 0.21 | 0.17 (≈ 0.0233 µg/mL) | 0.54 | 0.6 | 0.62 (≈ 0.085 µg/mL)
CO[C@H]1/C=C/O[C@@]2(C)Oc3c(C)c(O)c4c(O)c(c(/C=N/N5CCN(C)CC5)c(O)c4c3C2=O)NC(=O)/C(C)=C\C=C\[C@H](C)[C@H](O)[C@@H](C)[C@@H](O)[C@@H](C)[C@H](OC(C)=O)[C@@H]1C [Rifampicin, reference compound] | – | 0.022 | – | 0.0047 | 0.012 | 0.065 (≈ 0.0535 µg/mL) | 0.013 | 0.039 | 0.027 (≈ 0.0222 µg/mL) | 1.2 | 2.3 | – | > 50 | > 50 | > 50
O=C(C[n+]1cn(Cc2cccc(Cn3c[n+](CC(=O)c4ccc([N+](=O)[O-])cc4)c4ccccc43)n2)c2ccccc21)c1ccc([N+](=O)[O-])cc1.[Br-].[Br-] [Compound 6f, 1,1′-(pyridine-2,6-diylbis(methylene))bis(3-(2-(4-nitrophenyl)-2-oxoethyl)-1H-benzo[d]imidazol-3-ium) bromide] | 13 | 21 | 24 | 13 | 22 | 25 | 18 | 38 | 38 | 15 | 24 | 25 | 17 | 31 | 30
